Measured values as given in publication PMC11768629, “Potential Interaction of Pinocembrin with Drug Transporters and Hepatic Drug-Metabolizing Enzymes” (Pharmaceuticals, 2025).

Legend:
hOAT1 = target: T1, hOAT1 (Homo sapiens, UniProt Q4U2R8); experiment: Cis-inhibition assay, 3H-PAH uptake in hOAT1-MDCK cells; type: cell-based; conditions: 10 µM pinocembrin, compared with vehicle control
T1 construct: host or cells: MDCK
T1 sequence (Q4U2R8 1-563): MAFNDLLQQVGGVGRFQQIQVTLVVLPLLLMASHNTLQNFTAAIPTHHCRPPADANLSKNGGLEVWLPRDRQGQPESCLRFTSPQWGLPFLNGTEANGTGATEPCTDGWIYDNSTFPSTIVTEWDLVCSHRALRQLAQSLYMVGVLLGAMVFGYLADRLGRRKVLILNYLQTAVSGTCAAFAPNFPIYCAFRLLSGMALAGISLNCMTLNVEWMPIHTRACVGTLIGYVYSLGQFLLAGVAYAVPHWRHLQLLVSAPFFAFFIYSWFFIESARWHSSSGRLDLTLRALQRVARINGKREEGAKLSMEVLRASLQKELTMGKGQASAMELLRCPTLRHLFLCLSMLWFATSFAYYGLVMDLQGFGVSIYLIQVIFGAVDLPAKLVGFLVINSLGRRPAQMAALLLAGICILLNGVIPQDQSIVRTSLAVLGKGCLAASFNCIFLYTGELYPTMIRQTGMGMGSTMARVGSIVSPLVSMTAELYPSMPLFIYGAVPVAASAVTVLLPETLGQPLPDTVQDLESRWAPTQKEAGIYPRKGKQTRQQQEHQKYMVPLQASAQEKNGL
Experimental: (§1) Next, the effects of pinocembrin on the transport function of renal drug transporters, including hOAT1, hOAT3, hOCT1, hOCT2, hMATE1, and hMATE2, were determined.
(§2) A cell monolayer comprising hOAT1-MDCK, hOAT3-MDCK, hOCT1-CHO-K1, hOCT2-CHO-K1, hMATE1-CHO-K1, hMATE2-CHO-K1, and mock cells were utilized for the uptake experiments. The cells were washed three times with a buffer containing (in mM) 140 NaCl, 5 KCl, 0.4 MgSO4, 0.5 MgCl2, 1 CaCl2, 0.3 Na2HPO4, 0.4 KH2PO4, 6 D-glucose, and 4 NaHCO3 at pH 7.4 and incubated at 37 °C for 15 min. After incubation, the hOAT1-MDCK and hOAT3-MDCK cells were incubated for 10 min with ^3H-PAH and ^3H-estrone sulfate, a substrate of hOAT1 and hOAT3, respectively. The hOCT1-CHO-K1 and hOCT2-CHO-K1 cells were incubated with ^3H-MPP^+, a substrate of OCT1 and OCT2, for five minutes. The functions of MATE1 and MATE2 were determined by incubating the hMATE1-CHO-K1 and hMATE2-CHO-K1 cells with a buffer containing ^3H-MPP^+, a substrate of MATE1 and MATE2, at pH 8.5 for five minutes. The cells were washed three times with an ice-cold buffer to stop the transport function. The cells were lyzed with 0.4 N NaOH for at least four hours. The samples were collected and transferred to vials containing a liquid scintillation cocktail to measure radioactivity by a β-counter (Packard BioScience, Wellesley, MA, USA). […]

hOAT3 = target: T2, hOAT3 (Homo sapiens, UniProt Q8TCC7); experiment: Cis-inhibition assay, 3H-estrone sulfate uptake in hOAT3-MDCK cells; type: cell-based; conditions: 10 µM pinocembrin, compared with vehicle control
T2 construct: host or cells: MDCK
T2 sequence (Q8TCC7 1-542): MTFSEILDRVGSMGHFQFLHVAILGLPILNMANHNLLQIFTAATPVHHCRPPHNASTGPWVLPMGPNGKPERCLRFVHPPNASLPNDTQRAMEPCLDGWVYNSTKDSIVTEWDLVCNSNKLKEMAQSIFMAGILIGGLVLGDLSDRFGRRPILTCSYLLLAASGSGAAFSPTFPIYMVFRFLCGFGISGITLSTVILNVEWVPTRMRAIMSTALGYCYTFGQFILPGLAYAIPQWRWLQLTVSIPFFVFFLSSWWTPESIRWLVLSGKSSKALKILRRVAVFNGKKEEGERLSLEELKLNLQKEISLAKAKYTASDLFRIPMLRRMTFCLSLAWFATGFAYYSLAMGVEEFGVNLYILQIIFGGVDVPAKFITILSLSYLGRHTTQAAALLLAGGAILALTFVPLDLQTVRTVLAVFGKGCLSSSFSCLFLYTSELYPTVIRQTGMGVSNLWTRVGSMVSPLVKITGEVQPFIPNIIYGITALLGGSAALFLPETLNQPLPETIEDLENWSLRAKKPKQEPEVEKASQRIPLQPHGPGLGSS
Experimental: as §1, §2

OATP1A2 = tested on: OATP1A2; design: method as in PMID 28745105; conditions: transfected renal cells; cited from earlier work
OATP2B1 = tested on: OATP2B1; design: method as in PMID 28745105; conditions: transfected renal cells; read-out: IC50 on OATP2B1-mediated rosuvastatin uptake; cited from earlier work
CYP2B6 = target: T3, CYP2B6 (Homo sapiens, UniProt P20813); experiment: Cell-free CYP450 inhibition assay, CYP2B6; type: biochemical; conditions: cell-free fluorescent probe assay, BACULOSOMES
T3 construct: purchased Life Technologies
Experimental: (§3) To determine whether pinocembrin influences the catalytic activity of CYP450 enzymes, fluorescent probe reaction assays were performed using varying concentrations of pinocembrin. […] In addition, molecular docking was conducted to better understand the binding mode and interactions between pinocembrin and human CYP2C19.
(§4) The CYP450 inhibitory activity of pinocembrin was determined using a P450 screening kit (Life Technologies; Carlsbad, CA, USA). Varied concentrations of pinocembrin were prepared in methanol. […] The fluorescence intensities were monitored every minute for 60 min at room temperature. The percentage of inhibition was calculated according to the following equation: % Inhibition=(1−X−B/A−B)×100% where X is the fluorescence intensity observed in the presence of pinocembrin.

CYP2C8 = tested on: CYP2C8; design: method as in PMID 34069400, doi:10.5562/cca3652, PMID 35721953; conditions: cited from earlier work
hMATE2 = target: T4, hMATE2 (Homo sapiens, UniProt Q86VL8); experiment: Cis-inhibition assay, 3H-MPP+ uptake in hMATE2-CHO-K1 cells; type: cell-based; conditions: pinocembrin, pH 8.5
T4 construct: host or cells: CHO-K1
Experimental: as §1, §2

CYP1A2 = conditions: cited from earlier work
CYP2C19 = target: T5, CYP2C19 (Homo sapiens, UniProt P33261); experiment: Cell-free CYP450 inhibition assay, CYP2C19; type: biochemical; conditions: cell-free fluorescent probe assay
T5 construct: purchased Life Technologies
Experimental: as §3, §4

P-gp = target: T6, P-gp (Homo sapiens, UniProt P08183); experiment: P-gp-mediated 3H-digoxin transepithelial transport in Caco-2 cell monolayers; type: cell-based; conditions: 10 µM pinocembrin, 0-120 min, compared with vehicle control
T6 construct: Caco-2 cell monolayers, which express both P-gp and BCRP; host or cells: Caco-2
T6 sequence (P08183 whole entry): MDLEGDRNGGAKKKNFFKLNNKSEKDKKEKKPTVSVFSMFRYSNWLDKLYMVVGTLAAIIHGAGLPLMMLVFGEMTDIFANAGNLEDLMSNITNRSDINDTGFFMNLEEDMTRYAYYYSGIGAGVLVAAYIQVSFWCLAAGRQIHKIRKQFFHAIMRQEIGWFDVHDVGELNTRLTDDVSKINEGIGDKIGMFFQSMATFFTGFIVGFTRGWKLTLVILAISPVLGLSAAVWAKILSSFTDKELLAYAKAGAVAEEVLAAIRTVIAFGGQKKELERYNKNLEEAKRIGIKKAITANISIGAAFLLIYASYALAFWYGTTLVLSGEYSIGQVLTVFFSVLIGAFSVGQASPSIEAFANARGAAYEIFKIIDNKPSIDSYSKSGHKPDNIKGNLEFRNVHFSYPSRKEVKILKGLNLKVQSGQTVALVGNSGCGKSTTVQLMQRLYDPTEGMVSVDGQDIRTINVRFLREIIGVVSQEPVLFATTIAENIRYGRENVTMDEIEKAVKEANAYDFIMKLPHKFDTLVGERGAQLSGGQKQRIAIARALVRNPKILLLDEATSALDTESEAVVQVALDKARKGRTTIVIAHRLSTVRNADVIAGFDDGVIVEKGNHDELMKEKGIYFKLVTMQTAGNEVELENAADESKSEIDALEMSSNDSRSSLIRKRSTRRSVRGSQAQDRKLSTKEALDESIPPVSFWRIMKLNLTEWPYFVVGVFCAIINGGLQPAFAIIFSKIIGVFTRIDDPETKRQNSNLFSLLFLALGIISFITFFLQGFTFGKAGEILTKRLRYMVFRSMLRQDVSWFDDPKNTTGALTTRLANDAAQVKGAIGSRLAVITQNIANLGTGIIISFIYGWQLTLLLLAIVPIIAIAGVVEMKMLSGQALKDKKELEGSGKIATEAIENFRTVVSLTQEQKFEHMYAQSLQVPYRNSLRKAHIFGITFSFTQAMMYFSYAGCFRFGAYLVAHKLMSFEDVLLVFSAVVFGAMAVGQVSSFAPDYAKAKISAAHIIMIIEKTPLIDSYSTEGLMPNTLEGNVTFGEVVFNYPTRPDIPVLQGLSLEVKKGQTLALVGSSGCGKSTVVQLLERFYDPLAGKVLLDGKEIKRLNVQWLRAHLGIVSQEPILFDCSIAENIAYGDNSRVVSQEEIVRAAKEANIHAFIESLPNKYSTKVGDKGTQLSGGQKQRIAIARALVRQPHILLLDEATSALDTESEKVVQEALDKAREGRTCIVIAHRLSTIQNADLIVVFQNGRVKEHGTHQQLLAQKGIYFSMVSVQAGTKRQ
Experimental: The interactions of pinocembrin with P-gp and BCRP were determined by the measurement of P-gp-mediated ^3H-digoxin transport and BCRP-mediated ^3H-estrone sulfate transport in Caco-2 cell monolayers, which express both P-gp and BCRP [20]. The apical sides of the Caco-2 cell monolayers were incubated with a buffer containing ^3H-digoxin alone, ^3H-digoxin plus 10 µM pinocembrin or ^3H-digoxin plus 100 µM verapamil (P-gp inhibitor).
P-gp- and BCRP-mediated transport were measured by the transepithelial transport of their substrates (^3H-digoxin for P-gp and ^3H-estrone sulfate for BCRP) in Caco-2 cell monolayers. […] Caco-2 cells were cultured on membrane inserts (Corning Inc., Corning, NY, USA) for 21 days. […] The basolateral side was replaced with a transport buffer. The sample from the basolateral side was transferred to vials containing a liquid scintillation cocktail to measure radioactivity by a β-counter (Packard BioScience, Wellesley, MA, USA).

T5 sequence (P33261 whole entry): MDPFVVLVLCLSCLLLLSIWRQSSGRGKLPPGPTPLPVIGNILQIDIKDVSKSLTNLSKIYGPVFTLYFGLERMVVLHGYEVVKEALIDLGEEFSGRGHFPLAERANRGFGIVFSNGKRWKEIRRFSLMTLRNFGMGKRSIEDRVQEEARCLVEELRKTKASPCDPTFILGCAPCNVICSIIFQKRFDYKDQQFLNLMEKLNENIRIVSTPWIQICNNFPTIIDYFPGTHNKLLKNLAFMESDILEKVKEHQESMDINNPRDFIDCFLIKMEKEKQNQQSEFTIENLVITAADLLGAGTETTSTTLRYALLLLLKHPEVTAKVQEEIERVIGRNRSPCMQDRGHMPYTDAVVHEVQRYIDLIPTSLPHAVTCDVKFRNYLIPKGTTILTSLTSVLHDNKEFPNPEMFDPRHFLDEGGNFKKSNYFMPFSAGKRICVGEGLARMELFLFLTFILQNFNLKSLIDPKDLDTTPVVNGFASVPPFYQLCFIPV
T3 sequence (P20813 whole entry): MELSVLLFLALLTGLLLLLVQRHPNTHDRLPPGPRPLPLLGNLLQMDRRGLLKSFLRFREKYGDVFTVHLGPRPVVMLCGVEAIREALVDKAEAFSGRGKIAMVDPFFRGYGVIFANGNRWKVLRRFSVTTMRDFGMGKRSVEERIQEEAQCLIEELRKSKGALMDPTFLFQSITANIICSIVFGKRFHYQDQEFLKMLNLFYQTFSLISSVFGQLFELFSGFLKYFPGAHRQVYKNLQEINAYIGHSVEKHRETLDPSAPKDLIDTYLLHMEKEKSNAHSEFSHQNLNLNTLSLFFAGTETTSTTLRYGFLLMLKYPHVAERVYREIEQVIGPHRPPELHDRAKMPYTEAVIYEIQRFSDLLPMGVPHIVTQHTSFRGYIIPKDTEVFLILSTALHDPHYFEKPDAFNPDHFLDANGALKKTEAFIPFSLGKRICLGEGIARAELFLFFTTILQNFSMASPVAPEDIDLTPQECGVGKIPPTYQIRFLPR
T4 sequence (Q86VL8 whole entry): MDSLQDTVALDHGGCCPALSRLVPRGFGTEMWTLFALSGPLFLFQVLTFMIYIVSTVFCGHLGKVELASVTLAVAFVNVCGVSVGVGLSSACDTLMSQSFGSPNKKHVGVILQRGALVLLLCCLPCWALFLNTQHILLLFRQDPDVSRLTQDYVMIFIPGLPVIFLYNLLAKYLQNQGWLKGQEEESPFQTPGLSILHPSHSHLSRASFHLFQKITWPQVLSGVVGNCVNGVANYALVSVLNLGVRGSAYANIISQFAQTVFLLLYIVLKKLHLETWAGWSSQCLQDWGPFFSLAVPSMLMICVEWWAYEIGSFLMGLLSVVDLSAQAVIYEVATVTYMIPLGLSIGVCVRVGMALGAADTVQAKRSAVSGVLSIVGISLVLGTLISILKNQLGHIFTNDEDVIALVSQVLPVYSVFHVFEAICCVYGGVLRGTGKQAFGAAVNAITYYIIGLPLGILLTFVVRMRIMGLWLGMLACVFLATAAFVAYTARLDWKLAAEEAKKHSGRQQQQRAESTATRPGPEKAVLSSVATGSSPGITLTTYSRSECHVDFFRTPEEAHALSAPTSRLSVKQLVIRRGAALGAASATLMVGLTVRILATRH

3H-PAH cellular accumulation (hOAT1): significantly decreased
3H-estrone sulfate cellular accumulation (hOAT3): significantly decreased
IC50 (CYP2B6): 44 µM
hMATE2-mediated uptake of 3H-MPP+ (hMATE2): did not alter
IC50 (CYP2C19; BACULOSOMES): 4.5 µM
IC50 at 60 min (CYP2C19; human, CYP2C19 BACULOSOMES (cell-free recombinant enzyme)): 4.49 µM
transport of 3H-digoxin from the apical to basolateral side (P-gp): did not alter
Compound: O=C1C[C@@H](c2ccccc2)Oc2cc(O)cc(O)c21 [pinocembrin]
effect on OATP1A2 function (OATP1A2): weakly inhibits
IC50 (OATP2B1): 8.9 µM
effect on the activity of CYP2C8 (CYP2C8): does not affect
mechanism of CYP1A2 inhibition (CYP1A2): competitive
effect on the activity of CYP1A2 (CYP1A2; concentrations of 1–5 µM): shows an inhibitory effect
